The source of these data is patent US20230131025A1, “QUINOLYL PHOSPHINE OXIDE COMPOUND, AND COMPOSITION AND APPLICATION THEREOF” (Betta Pharmaceuticals Co., Ltd., priority 2020, published 2023).

The target of assay [1] is EGFR WT (Homo sapiens, UniProt P00533). Nature of the assay: Kinase inhibition assay (mobility shift). It is filed as biochemical. The method, then:
(§1) Experiment 1 Kinase Inhibition Assay Mobility shift assays were performed to determine inhibitory activity of compounds against EGFR^Δ19del/T790M/C797S, EGFR WT and IGF1R kinases. The enzymatic reaction scheme is as follows:
(§2) 1. Preparing 1*Kinase Buffer as follows:
(§3) 2. Preparing compound concentration gradient: the initial concentration of the compound tested in the assay was 3,000 nM or 100 nM, which is then diluted to be 100-fold final concentration in 100% DMSO in a 384-source plate. Compounds in 10 concentrations were diluted in a 3-fold gradient with Precision. 250 nL of compound in 100-fold final concentration was transferred to OptiPlate-384F plate by using a dispenser named Echo 550.
(§4) 3. Preparing kinase solution at 2.5-fold the final concentration with 1×kinase buffer.
(§5) 4. Adding 10 μL of kinase solution at 2.5-fold the final concentration to compound wells and positive control wells respectively; and adding 10 μL of 1×kinase buffer to negative control wells.
(§6) 5. Centrifuging the wells at 1,000 rpm for 30 seconds, mixing the reaction plate well by shaking and incubating it at room temperature for 10 minutes.
(§7) 6. Preparing a mixed solution of ATP and kinase substrate at 5-fold/3-fold the final concentration with 1×Kinase buffer, respectively.
(§8) 7. Initiating the reaction by adding 15 μL of the mixed solution of ATP and kinase substrate at 5-fold/3-fold the final concentration.
(§9) 8. Centrifuging the 384-well plate at 1,000 rpm for 30 seconds, mixing the reaction plate well by shaking and incubating it at room temperature for a corresponding time.
(§10) 9. Adding 30 μL of assay stop solution to stop the kinase reaction, and centrifuging the plate at 1,000 rpm for 30 seconds and mixing it well by shaking.
(§11) 10. Reading the conversion rate with Caliper EZ Reader.
(§12) [formula] • wherein, “Conversion % sample” is the conversion rate reading of the sample;
(§13) “Conversion %_min” is the mean value of the negative control wells, representing the conversion rate readings of the well without enzymatic activity; “Conversion %_max” is the mean value of the positive control wells, representing the conversion rate readings of the wells without compound inhibition. • Dose-response curve is plotted with the logarithmic concentration on the X-axis and percent inhibition on the Y-axis. The fitting of the dose-response curve is made with the module “log(inhibitor) vs. response—Variable slope” of the analysis software GraphPad Prism 5, so that the IC50 value of each compound on enzymatic activity is obtained. • The calculation formula is: Y=Bottom+(Top−Bottom)/(1+10^((Log IC50−X)*HillSlope)).

The target of assay [2] is EGFR Δ19del/T790M/C797S (Homo sapiens, UniProt P00533, T790M/C797S, form not given). Nature of the assay: Kinase inhibition assay (mobility shift). The format is biochemical. Here is the method: as §1, §2, §3, §4, §5, §6, §7, §8, §9, §10, §11, §12, §13
In assay [3] the target is IGF1R (Homo sapiens, UniProt P08069). Description: Kinase inhibition assay (mobility shift). It is filed as biochemical. The method, then: as §1, §2, §3, §4, §5, §6, §7, §8, §9, §10, §11, §12, §13
Chain of IGF1R (P08069 31-1367, species assumed): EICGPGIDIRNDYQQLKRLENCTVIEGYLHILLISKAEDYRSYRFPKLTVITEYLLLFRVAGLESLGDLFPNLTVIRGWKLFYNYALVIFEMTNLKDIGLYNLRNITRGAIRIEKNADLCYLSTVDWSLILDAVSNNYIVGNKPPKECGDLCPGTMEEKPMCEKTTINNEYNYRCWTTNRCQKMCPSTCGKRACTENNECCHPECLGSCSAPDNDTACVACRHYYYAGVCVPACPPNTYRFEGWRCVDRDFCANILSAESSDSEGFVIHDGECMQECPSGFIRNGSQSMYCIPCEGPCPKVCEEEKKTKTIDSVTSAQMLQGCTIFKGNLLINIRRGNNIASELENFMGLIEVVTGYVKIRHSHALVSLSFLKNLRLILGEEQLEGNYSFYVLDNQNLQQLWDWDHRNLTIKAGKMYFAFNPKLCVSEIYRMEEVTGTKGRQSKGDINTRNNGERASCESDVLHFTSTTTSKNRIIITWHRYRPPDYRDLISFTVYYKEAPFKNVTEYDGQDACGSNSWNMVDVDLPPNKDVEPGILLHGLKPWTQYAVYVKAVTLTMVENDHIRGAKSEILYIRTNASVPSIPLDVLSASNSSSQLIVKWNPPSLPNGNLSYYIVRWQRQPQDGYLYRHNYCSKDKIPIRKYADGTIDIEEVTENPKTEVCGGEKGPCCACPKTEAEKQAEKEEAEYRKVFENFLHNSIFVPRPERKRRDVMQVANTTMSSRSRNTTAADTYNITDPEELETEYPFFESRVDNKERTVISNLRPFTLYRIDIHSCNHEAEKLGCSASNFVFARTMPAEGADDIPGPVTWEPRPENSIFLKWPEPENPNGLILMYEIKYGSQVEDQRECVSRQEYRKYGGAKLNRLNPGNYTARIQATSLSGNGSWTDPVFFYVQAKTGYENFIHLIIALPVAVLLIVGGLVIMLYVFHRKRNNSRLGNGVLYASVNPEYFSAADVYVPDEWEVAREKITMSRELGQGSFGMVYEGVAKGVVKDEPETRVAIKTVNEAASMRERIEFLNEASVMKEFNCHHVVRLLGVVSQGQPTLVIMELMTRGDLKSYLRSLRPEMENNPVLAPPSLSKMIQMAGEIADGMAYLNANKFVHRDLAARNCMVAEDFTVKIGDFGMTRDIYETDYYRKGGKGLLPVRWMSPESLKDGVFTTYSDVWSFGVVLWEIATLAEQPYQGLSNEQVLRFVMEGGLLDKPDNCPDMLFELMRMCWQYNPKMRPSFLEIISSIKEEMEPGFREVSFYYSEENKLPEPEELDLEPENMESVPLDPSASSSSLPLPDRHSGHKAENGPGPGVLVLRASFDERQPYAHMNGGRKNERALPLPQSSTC
Assay [4] concerns the target Ba/F3 EGFR WT (Homo sapiens, UniProt P00533). Nature of the assay: Cell proliferation experiment (CellTiter Glo, 72 hours). The format is cell-based. The conditions noted are these: read-out: BaF3 EGFR WT IC50. The method, then: (§14) Experiment 2 Cell Proliferation Experiment
(§15) Suspension cells: Ba/F3 cells with stable overexpression of Δ19del/T790M/C797S mutant gene, named Ba/F3-Δ19del/T790M/C797S; Ba/F3 cells with overexpression of EGFR WT, named Ba/F3 EGFR WT.
(§16) RPMI 1640 with 10% FBS and 1% Penicillin-Streptomycin, or DMEM with 10% FBS and 1% Penicillin-Streptomycin.
(§17) a) Diluting compounds being tested (20 mM stock solutions), as an initial concentration, to 10 mM with 100% DMSO, followed by diluting compounds serially in a 3-fold gradient such that each compound is diluted into 12 concentrations (Cat #P-05525, Labcyte).
(§18) b) Diluting the above compound solutions for 100-fold with culture medium to prepare 10-fold working solution.
(§19) b) Seeding cells into 96-well cell culture plate at a density of 2000 or 3000 cells/well, with 135 μL/well.
(§20) a) Adding the compound prepared in step 2 to the cell plate at 15 μL per well, resulting in a final maximum concentration of 10000 nM or 1111 nM. The compounds is diluted serially in a 3-fold gradient such that each compound is diluted into 9 concentrations, wherein the final concentration of DMSO is 0.1%. Blank control wells are added with medium (0.1% DMSO).
(§21) b) Re-incubating the cells in an incubator for 72 hours. 5. Detection
(§22) a) Adding 50 μL of CTG reagent (CellTiter Glo kit, promega, Cat #G7573) to the 96-well cell culture plate.
(§23) b) Shaking the plate for 2 minutes and reacting at room temperature for 10 minutes.
(§24) c) Reading the luminescence signal value (Lum) using PerkinElmer reader.
(§25) The cell survival inhibition rate of each well was calculated. The data was analyzed by GraphPad Prism 6.0 software. The dose-response curve was obtained by fitting the data with a nonlinear regression equation. The IC50 of each compound was calculated as follows:
(§26) Cell survival inhibition rate (%)=(1−(Lumcompound tested−Lummedium control)/(Lumcell control−Lummedium control))×100%
(§27) Y=Min+(Max−Min)/(1+10^((Log IC50−X)*Slope));
(§28) X: logarithm of compound concentration. Y: cell survival inhibition rate.
(In general: Cellular ATP, detected with luciferase, serves as a proxy for viable cell number.)

Assay [5] addresses Ba/F3-Δ19del/T790M/C797S (Homo sapiens, UniProt P00533, T790M/C797S, cells depend on it, form not given). The description is as above. It is filed as cell-based. The conditions noted are these: read-out: Ba/F3/EGFR Δ19del/T790M/C797S IC50. The method, then:
as §14, §15, §16, §17, §18, §19, §20, §21, §22, §23, §24, §25, §26, §27, §28

Assay [6] has as its system human epidermal cancer cells A431 carrying EGFR WT. The assay is described as above. The note with it: Homo sapiens, A-431. The format is cell-based. The method, then: as §14
Adherent cells: human epidermal cancer cells A431 carrying EGFR WT.
as §16, §17, §18, §19, §20, §21, §22, §23, §24, §25, §26, §27, §28

Chain of Ba/F3 EGFR WT (P00533 whole entry, stated change not applied): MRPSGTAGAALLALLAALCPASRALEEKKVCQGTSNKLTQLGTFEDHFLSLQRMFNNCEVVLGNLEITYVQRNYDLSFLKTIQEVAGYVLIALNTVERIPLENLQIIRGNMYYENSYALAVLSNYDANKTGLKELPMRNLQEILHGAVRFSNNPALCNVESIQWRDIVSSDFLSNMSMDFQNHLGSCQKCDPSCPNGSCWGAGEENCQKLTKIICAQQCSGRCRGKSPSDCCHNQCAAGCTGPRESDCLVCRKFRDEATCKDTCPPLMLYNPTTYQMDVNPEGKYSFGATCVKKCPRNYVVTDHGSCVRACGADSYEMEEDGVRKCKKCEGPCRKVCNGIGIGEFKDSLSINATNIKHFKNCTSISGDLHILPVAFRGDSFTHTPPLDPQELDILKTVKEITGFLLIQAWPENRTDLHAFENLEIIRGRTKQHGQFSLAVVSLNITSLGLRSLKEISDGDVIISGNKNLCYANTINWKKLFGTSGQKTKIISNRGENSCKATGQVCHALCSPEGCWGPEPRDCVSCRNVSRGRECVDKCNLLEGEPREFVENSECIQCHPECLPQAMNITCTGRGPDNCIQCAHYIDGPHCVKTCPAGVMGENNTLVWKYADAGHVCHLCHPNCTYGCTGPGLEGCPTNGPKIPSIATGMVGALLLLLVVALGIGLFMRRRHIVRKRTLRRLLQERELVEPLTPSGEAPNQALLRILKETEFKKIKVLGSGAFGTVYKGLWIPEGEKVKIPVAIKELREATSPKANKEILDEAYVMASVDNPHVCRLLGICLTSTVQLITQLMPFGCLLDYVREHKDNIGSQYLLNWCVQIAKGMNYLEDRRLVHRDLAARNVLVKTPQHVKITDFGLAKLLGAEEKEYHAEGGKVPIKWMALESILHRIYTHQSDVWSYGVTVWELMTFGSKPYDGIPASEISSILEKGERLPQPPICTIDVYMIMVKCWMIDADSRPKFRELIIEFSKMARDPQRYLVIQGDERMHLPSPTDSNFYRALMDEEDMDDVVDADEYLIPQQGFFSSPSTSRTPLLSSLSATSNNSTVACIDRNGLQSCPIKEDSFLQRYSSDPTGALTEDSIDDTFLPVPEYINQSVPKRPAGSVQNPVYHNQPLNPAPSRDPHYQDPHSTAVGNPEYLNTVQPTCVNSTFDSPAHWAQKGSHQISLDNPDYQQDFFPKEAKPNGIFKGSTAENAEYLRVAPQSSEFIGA
Chain of EGFR WT (P00533 25-1210): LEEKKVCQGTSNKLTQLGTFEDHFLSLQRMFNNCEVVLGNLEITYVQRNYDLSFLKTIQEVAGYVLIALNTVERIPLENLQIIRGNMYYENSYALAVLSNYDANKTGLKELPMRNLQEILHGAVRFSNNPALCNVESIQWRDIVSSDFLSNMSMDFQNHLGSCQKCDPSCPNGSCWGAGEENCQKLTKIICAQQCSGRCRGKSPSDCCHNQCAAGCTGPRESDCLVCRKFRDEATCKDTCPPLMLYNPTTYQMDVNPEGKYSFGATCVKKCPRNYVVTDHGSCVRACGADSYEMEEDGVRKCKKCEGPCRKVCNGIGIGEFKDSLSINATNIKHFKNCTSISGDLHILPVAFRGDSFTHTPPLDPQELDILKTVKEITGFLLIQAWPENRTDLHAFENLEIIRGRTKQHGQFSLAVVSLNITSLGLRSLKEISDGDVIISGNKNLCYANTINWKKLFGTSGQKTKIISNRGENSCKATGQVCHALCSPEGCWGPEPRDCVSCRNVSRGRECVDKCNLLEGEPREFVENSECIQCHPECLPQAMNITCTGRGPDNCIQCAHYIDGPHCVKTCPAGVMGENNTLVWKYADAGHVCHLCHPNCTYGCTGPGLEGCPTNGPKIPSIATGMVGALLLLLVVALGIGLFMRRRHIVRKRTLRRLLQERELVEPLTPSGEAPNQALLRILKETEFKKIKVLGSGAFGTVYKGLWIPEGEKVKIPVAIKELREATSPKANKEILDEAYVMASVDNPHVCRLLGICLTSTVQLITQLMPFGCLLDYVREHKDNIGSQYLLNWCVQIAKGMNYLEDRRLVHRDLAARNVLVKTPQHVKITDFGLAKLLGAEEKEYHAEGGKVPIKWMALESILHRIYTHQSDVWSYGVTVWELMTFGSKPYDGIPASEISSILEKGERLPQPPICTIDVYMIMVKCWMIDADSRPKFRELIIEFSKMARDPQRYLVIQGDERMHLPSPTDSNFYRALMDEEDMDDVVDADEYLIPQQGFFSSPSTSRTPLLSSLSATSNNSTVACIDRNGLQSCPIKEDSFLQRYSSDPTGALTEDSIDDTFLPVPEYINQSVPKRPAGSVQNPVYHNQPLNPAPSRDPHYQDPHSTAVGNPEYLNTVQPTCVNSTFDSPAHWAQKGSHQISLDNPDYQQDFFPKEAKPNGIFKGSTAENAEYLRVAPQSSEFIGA
Chain of Ba/F3-Δ19del/T790M/C797S (P00533 with tags, fused parts or gaps DEL746-750/T790M/C797S, form open): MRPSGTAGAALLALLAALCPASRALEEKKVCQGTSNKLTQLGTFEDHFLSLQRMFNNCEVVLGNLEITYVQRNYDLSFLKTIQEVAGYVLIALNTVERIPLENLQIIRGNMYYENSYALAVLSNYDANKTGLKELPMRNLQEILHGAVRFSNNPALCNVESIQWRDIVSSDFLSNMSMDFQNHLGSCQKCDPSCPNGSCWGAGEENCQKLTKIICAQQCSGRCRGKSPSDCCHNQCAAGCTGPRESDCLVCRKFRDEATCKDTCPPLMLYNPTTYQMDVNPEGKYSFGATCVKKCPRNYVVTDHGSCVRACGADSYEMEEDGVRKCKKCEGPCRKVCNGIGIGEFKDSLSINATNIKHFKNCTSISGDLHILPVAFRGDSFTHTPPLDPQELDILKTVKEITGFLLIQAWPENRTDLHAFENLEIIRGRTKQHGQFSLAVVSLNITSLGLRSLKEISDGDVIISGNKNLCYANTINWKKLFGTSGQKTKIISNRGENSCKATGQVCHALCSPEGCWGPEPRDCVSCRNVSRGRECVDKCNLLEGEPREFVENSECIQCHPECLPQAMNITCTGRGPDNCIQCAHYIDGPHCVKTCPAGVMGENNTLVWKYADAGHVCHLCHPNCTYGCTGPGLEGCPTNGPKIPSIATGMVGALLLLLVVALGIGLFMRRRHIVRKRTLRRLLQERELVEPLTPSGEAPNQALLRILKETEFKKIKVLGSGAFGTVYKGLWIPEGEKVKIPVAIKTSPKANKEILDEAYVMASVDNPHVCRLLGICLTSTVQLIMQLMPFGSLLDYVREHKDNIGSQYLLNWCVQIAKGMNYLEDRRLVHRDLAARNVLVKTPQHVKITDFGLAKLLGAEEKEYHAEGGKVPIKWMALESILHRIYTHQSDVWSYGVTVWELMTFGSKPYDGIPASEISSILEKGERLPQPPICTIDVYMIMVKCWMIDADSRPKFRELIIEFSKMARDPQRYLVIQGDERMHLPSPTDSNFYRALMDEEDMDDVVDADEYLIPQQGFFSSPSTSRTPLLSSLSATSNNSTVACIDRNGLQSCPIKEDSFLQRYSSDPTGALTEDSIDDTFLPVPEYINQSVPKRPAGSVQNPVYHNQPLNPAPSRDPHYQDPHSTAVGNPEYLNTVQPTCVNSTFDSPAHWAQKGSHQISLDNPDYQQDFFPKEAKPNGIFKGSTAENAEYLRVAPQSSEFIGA

For orientation: IC50 means the concentration needed to halve the response being measured. `C#Cc1ccc2c(P(C)(C)=O)c(Nc3nc(Nc4cc(C)c(N5CCC(N6CCN(C)CC6)CC5)cc4OC)ncc3Br)ccc2n1` [Compound J-013, (6-((5-Bromo-2-((2-methoxy-5-methyl-4-(4-(4-methylpiperazin-1 yl)piperidin-1-yl)phenyl)amino)pyrimidin-4-yl)amino)-2-ethynylquinolin-5-yl)dimethylphosphine oxide]: the IC50 in assay [1] stood at 11.4 nM; in assay [2], 0.4 nM; in assay [3], 28.2 nM; in assay [6], 308 nM. For the same compound, the figures for the GI50 in assay [4] and in assay [5] were 87 nM and 15.3 nM, respectively.
As for `COc1cc(Nc2ncc(Br)c(Nc3ccc4nc(C5CC5)ccc4c3P(C)(C)=O)n2)c(C)cc1N1CCOCC1` [Compound J-001, (6-((5-Bromo-2-((5-methoxy-2-methyl-4-morpholinylphenyl)amino)pyrimidin-4-yl)amino)-2-cyclopropylquinoline-5-yl)dimethylphosphine oxide], the IC50 in assay [1] came to 51.7 nM; in assay [2], 0.5 nM; in assay [3], 63.6 nM; in assay [6], 1350 nM. Moreover, the GI50 in assay [4] worked out at 396 nM; in assay [5], 26.5 nM.
In the case of `CCc1cc(Nc2ncc(Br)c(Nc3ccc4nc(C5CC5)ccc4c3P(C)(C)=O)n2)c(OC)cc1N1CCN(C)CC1` [Compound J-011, (6-((5-Bromo-2-((5-ethyl-2-methoxy-4-(4-methylpiperazin-1-yl)phenyl)amino)pyrimidin-4-yl)amino)-2-cyclopropylquinolin-5-yl)dimethylphosphine oxide], the IC50 in assay [1] came to 45.8 nM; in assay [2], 0.7 nM; in assay [3] it was 146 nM; in assay [6], 1160 nM. The results for the GI50 in assay [4] and in assay [5] were 190 nM and 4.7 nM, respectively.
`COc1cc(Nc2ncc(Br)c(Nc3ccc4nc(C5CC5)ccc4c3P(C)(C)=O)n2)c(C2CCOCC2)cc1N1CCC(N2CCN(C)CC2)CC1` [Compound J-026, (6-((5-Bromo-2-((5-methoxy-4-(4-(4-methylpiperazin-1-yl)piperidin-1-yl)-2-(tetrahydro-2H-pyran-4-yl)phenyl)amino)pyrimidin-4-yl)amino)-2-cyclopropylquinolin-5-yl)dimethylphosphine oxide]: the IC50 is above 3000 nM in assay [1], 36 nM in assay [2] and above 3000 nM in assay [3].
As for `CCc1cc(Nc2ncc(Br)c(Nc3ccc4nc(-c5cnn(C)c5)ccc4c3P(C)(C)=O)n2)c(OC)cc1N1CCC(N2CCN(C)CC2)CC1` [Compound J-017, (6-((5-Bromo-2-((5-ethyl-2-methoxy-4-(4-(4-methylpiperazin-1-yl)piperidin-1-yl)phenyl)amino)pyrimidin-4-yl)amino)-2(1-methyl-1H-pyrazol-4-yl)quinolin-5-yl)dimethylphosphine oxide], the IC50 came to 18.4 nM in assay [1], 0.3 nM in assay [2] and 246 nM in assay [3].
As for `COc1cc(Nc2ncc(Br)c(Nc3ccc4nc(C5CC5)ccc4c3P(C)(C)=O)n2)c(C2CC2)cc1N1CCOCC1` [Compound J-004, (6-((5-Bromo-2-((2-cyclopropyl-5-methoxy-4-morpholinylphenyl)amino)pyrimidin-4-yl)amino)-2-cyclopropylquinoline-5-yl)dimethylphosphine oxide], the values for the concentration for half-maximal inhibition (IC50) in assay [1], in assay [2] and in assay [3] were 283 nM, 0.7 nM and 380 nM, respectively.
Taken in the same sequence, the figures for `COc1cc(N2CCN(C3CC3)CC2)c(C)cc1Nc1ncc(Br)c(Nc2ccc3nc(C4CC4)ccc3c2P(C)(C)=O)n1` [Compound J-038, (6-((5-Bromo-2-((4-(4-cyclopropylpiperazin-1-yl)-2-methoxy-5-methylphenyl)amino)pyrimidin-4-yl)amino)-2-cyclopropylquinolin-5-yl)dimethylphosphine oxide] were 171 nM, 0.9 nM and 586 nM.
Regarding `COc1cc(N2CCOCC2)c(C#N)cc1Nc1ncc(Br)c(Nc2ccc3nc(C4CC4)ccc3c2P(C)(C)=O)n1` [Compound J-002, 5-((5-Bromo-4-((2-cyclopropyl-5-(dimethylphosphineoxide)quinolin-6-yl)amino)pyrimidin-2-yl)amino)-4-methoxy-2-morpholinebenzonitrile], the IC50 in assay [1] worked out at 62.8 nM; in assay [2], 0.4 nM; in assay [3] it was 720 nM.
For `COc1cc(Nc2ncc(Br)c(Nc3ccc4nc(C5CC5)ccc4c3P(C)(C)=O)n2)cc(C)c1N1CCOCC1` [Compound J-006, (6-((5-Bromo-2-((3-methoxy-5-methyl-4-morpholinylphenyl)amino)pyrimidin-4-yl)amino)-2-cyclopropylquinoline-5-yl)dimethylphosphine oxide], the 50% inhibitory concentration (IC50) in assay [1] was determined as 714 nM; in assay [2] it was 3.5 nM; in assay [3], 437 nM.
`CCc1cc(N2CCC(N3CCN(C)CC3)CC2)c(OC)cc1Nc1ncc(Br)c(Nc2ccc3nc(C4CC4)ccc3c2P(C)(C)=O)n1` [Compound J-031, (6-((5-Bromo-2-((2-ethyl-5-methoxy-4-(4-(4-methylpiperazin-1-yl)piperidin-1-yl)phenyl)amino)pyrimidin-4-yl)amino)-2-cyclopropylquinolin-5-yl)dimethylphosphine oxide]: the results for the IC50 in assay [1], in assay [2] and in assay [3] were 64 nM, 0.5 nM and 103 nM, respectively.
With `COc1cc(-c2ccc(N3CCN(C)CC3)cc2)c(C)cc1Nc1ncc(Br)c(Nc2ccc3nc(C4CC4)ccc3c2P(C)(C)=O)n1` [Compound J-040, (6-((5-Bromo-2-((5-methoxy-2-methyl-4′-(4-methylpiperazin-1-yl)-[1,1′-biphenyl]-4-yl)amino)pyrimidin-4-yl)amino)-2-cyclopropylquinolin-5-yl)dimethylphosphine oxide], the IC50 stood at 550 nM in assay [1], 6 nM in assay [2] and 1160 nM in assay [3].
`COc1cc(N2CCN(C3CCCC3)CC2)c(C)cc1Nc1ncc(Br)c(Nc2ccc3nc(C4CC4)ccc3c2P(C)(C)=O)n1` [Compound J-032, (6-((5-Bromo-2-((4-(4-cyclopentylpiperazin-1-yl)-2-methoxy-5-methylphenyl)amino)pyrimidin-4-yl)amino)-2-cyclopropylquinolin-5-yl)dimethylphosphine oxide]: the values for the IC50 in assay [1], in assay [2] and in assay [3] were 121 nM, 1 nM and 170 nM, respectively.
